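Cultured in 96-well plates, cells were exposed to test compound for 48 hours across five concentrations. The concentration for 50% growth inhibition is given as GI50. The concentration for full growth arrest is given as TGI.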
What was measured:
Assay in all cases: NCI-60 cell line screen, 48 h
786-0 renal = test system: 786-0 renal
A549 NSCLC = test system: A549 NSCLC
ACHN renal = test system: ACHN renal
CAKI-1 renal = test system: CAKI-1 renal
DU-145 prostate = test system: DU-145 prostate
EKVX NSCLC = test system: EKVX NSCLC
HCT-15 colon = test system: HCT-15 colon
HOP-62 NSCLC = test system: HOP-62 NSCLC
HS 578T breast = test system: HS 578T breast
HT29 colon = test system: HT29 colon
IGROV1 ovarian = test system: IGROV1 ovarian
KM12 colon = test system: KM12 colon
LOX IMVI melanoma = test system: LOX IMVI melanoma
M14 melanoma = test system: M14 melanoma
MALME-3M melanoma = test system: MALME-3M melanoma
MCF7 breast = test system: MCF7 breast
MDA-MB-231 breast = test system: MDA-MB-231 breast
MDA-MB-435 = test system: MDA-MB-435
NCI-H226 lung = test system: NCI-H226 lung
NCI-H23 lung = test system: NCI-H23 lung
NCI-H460 lung = test system: NCI-H460 lung
NCI-H522 lung = test system: NCI-H522 lung
NCI/ADR-RES ovarian = test system: NCI/ADR-RES ovarian
OVCAR-3 ovarian = test system: OVCAR-3 ovarian
OVCAR-4 ovarian = test system: OVCAR-4 ovarian
OVCAR-5 ovarian = test system: OVCAR-5 ovarian
OVCAR-8 ovarian = test system: OVCAR-8 ovarian
RXF 393 renal = test system: RXF 393 renal
SF-268 CNS = test system: SF-268 CNS
SF-295 CNS = test system: SF-295 CNS
SF-539 CNS = test system: SF-539 CNS
SK-MEL-2 melanoma = test system: SK-MEL-2 melanoma
SK-MEL-28 melanoma = test system: SK-MEL-28 melanoma
SK-MEL-5 melanoma = test system: SK-MEL-5 melanoma
SK-OV-3 ovarian = test system: SK-OV-3 ovarian
SN12C renal = test system: SN12C renal
SNB-19 CNS = test system: SNB-19 CNS
SNB-75 CNS = test system: SNB-75 CNS
SW-620 colon = test system: SW-620 colon
T-47D breast = test system: T-47D breast
TK-10 renal = test system: TK-10 renal
U251 CNS = test system: U251 CNS
UACC-62 melanoma = test system: UACC-62 melanoma
UO-31 renal = test system: UO-31 renal
A498 renal = test system: A498 renal
COLO 205 colon = test system: COLO 205 colon
HCC-2998 colon = test system: HCC-2998 colon
HCT-116 colon = test system: HCT-116 colon
HL-60(TB) leukemia = test system: HL-60(TB) leukemia
HOP-92 NSCLC = test system: HOP-92 NSCLC
K-562 leukemia = test system: K-562 leukemia
MOLT-4 leukemia = test system: MOLT-4 leukemia
PC-3 prostate = test system: PC-3 prostate
RPMI-8226 leukemia = test system: RPMI-8226 leukemia
UACC-257 melanoma = test system: UACC-257 melanoma

CCCC(=O)/C=C/S/C=C/C(=O)CCC
TGI (786-0 renal): 4.98 µM | TGI (A549 NSCLC): > 100 µM | TGI (ACHN renal): 6.92 µM | TGI (CAKI-1 renal): 7.4 µM | TGI (DU-145 prostate): 27.1 µM | TGI (EKVX NSCLC): 10.6 µM | TGI (HCT-15 colon): 8.22 µM | TGI (HOP-62 NSCLC): 42.6 µM | TGI (HS 578T breast): 36.3 µM | TGI (HT29 colon): > 100 µM | TGI (IGROV1 ovarian): 47.9 µM | TGI (KM12 colon): 37.3 µM | TGI (LOX IMVI melanoma): 6.27 µM | TGI (M14 melanoma): 9 µM | TGI (MALME-3M melanoma): 25.4 µM | TGI (MCF7 breast): > 100 µM | TGI (MDA-MB-231 breast): 23.8 µM | TGI (MDA-MB-435): 18.6 µM | TGI (NCI-H226 lung): 17.9 µM | TGI (NCI-H23 lung): 7.7 µM | TGI (NCI-H460 lung): > 100 µM | TGI (NCI-H522 lung): 4.2 µM | TGI (NCI/ADR-RES ovarian): 9.05 µM | TGI (OVCAR-3 ovarian): 18.7 µM | TGI (OVCAR-4 ovarian): 43.2 µM | TGI (OVCAR-5 ovarian): 9.69 µM | TGI (OVCAR-8 ovarian): 5.46 µM | TGI (RXF 393 renal): 21.4 µM | TGI (SF-268 CNS): > 100 µM | TGI (SF-295 CNS): 66.3 µM | TGI (SF-539 CNS): 27 µM | TGI (SK-MEL-2 melanoma): > 100 µM | TGI (SK-MEL-28 melanoma): 18.7 µM | TGI (SK-MEL-5 melanoma): 16.1 µM | TGI (SK-OV-3 ovarian): > 100 µM | TGI (SN12C renal): 28 µM | TGI (SNB-19 CNS): 72.3 µM | TGI (SNB-75 CNS): 83.6 µM | TGI (SW-620 colon): 6.05 µM | TGI (T-47D breast): > 100 µM | TGI (TK-10 renal): 14.5 µM | TGI (U251 CNS): 66.2 µM | TGI (UACC-62 melanoma): 29.8 µM | TGI (UO-31 renal): > 100 µM

COc1cc2c3c(n(CCCNC(=O)OCC4c5ccccc5-c5ccccc54)c(=O)c2cc1OC)-c1cc2c(cc1C3=O)OCO2
GI50 (786-0 renal): 37.7 µM | TGI (786-0 renal): > 100 µM | GI50 (A498 renal): 24.9 µM | TGI (A498 renal): > 100 µM | GI50 (A549 NSCLC): > 100 µM | TGI (A549 NSCLC): > 100 µM | GI50 (ACHN renal): 0.376 µM | TGI (ACHN renal): 6.25 µM | GI50 (CAKI-1 renal): 4.05 µM | TGI (CAKI-1 renal): > 100 µM | GI50 (COLO 205 colon): > 100 µM | TGI (COLO 205 colon): > 100 µM | GI50 (DU-145 prostate): > 100 µM | TGI (DU-145 prostate): > 100 µM | GI50 (EKVX NSCLC): > 100 µM | TGI (EKVX NSCLC): > 100 µM | GI50 (HCC-2998 colon): > 100 µM | TGI (HCC-2998 colon): > 100 µM | GI50 (HCT-116 colon): 13.8 µM | TGI (HCT-116 colon): > 100 µM | GI50 (HCT-15 colon): > 63.2 µM | TGI (HCT-15 colon): > 100 µM | GI50 (HL-60(TB) leukemia): > 81.2 µM | TGI (HL-60(TB) leukemia): > 100 µM | GI50 (HOP-62 NSCLC): 13.7 µM | TGI (HOP-62 NSCLC): > 74 µM | GI50 (HOP-92 NSCLC): 48.8 µM | TGI (HOP-92 NSCLC): > 100 µM | GI50 (HS 578T breast): 22.8 µM | TGI (HS 578T breast): > 100 µM | GI50 (HT29 colon): > 100 µM | TGI (HT29 colon): > 100 µM | GI50 (IGROV1 ovarian): > 100 µM | TGI (IGROV1 ovarian): > 100 µM | GI50 (K-562 leukemia): > 79.4 µM | TGI (K-562 leukemia): > 100 µM | GI50 (KM12 colon): > 100 µM | TGI (KM12 colon): > 100 µM | GI50 (LOX IMVI melanoma): 1.48 µM | TGI (LOX IMVI melanoma): > 37.1 µM | GI50 (M14 melanoma): 36.8 µM | TGI (M14 melanoma): > 100 µM | GI50 (MALME-3M melanoma): 93.3 µM | TGI (MALME-3M melanoma): > 100 µM | GI50 (MCF7 breast): 7.62 µM | TGI (MCF7 breast): > 100 µM | GI50 (MDA-MB-231 breast): 15.9 µM | TGI (MDA-MB-231 breast): > 74.2 µM | GI50 (MDA-MB-435): > 100 µM | TGI (MDA-MB-435): > 100 µM | GI50 (MOLT-4 leukemia): 8.07 µM | TGI (MOLT-4 leukemia): > 34.6 µM | GI50 (NCI-H226 lung): > 100 µM | TGI (NCI-H226 lung): > 100 µM | GI50 (NCI-H23 lung): > 64.1 µM | TGI (NCI-H23 lung): > 100 µM | GI50 (NCI-H460 lung): 2.57 µM | TGI (NCI-H460 lung): > 100 µM | GI50 (NCI-H522 lung): 34.9 µM | TGI (NCI-H522 lung): > 100 µM | GI50 (NCI/ADR-RES ovarian): > 100 µM | TGI (NCI/ADR-RES ovarian): > 100 µM | GI50 (OVCAR-3 ovarian): > 100 µM | TGI (OVCAR-3 ovarian): > 100 µM | GI50 (OVCAR-4 ovarian): > 100 µM | TGI (OVCAR-4 ovarian): > 100 µM | GI50 (OVCAR-5 ovarian): > 100 µM | TGI (OVCAR-5 ovarian): > 100 µM | GI50 (OVCAR-8 ovarian): > 93.6 µM | TGI (OVCAR-8 ovarian): > 100 µM | GI50 (PC-3 prostate): > 100 µM | TGI (PC-3 prostate): > 100 µM | GI50 (RPMI-8226 leukemia): > 28.3 µM | TGI (RPMI-8226 leukemia): > 100 µM | GI50 (RXF 393 renal): 20.1 µM | TGI (RXF 393 renal): > 73.9 µM | GI50 (SF-268 CNS): 16.6 µM | TGI (SF-268 CNS): > 72.4 µM | GI50 (SF-295 CNS): 0.751 µM | TGI (SF-295 CNS): > 100 µM | GI50 (SF-539 CNS): 7.25 µM | TGI (SF-539 CNS): 31.2 µM | GI50 (SK-MEL-2 melanoma): 45.5 µM | TGI (SK-MEL-2 melanoma): > 100 µM | GI50 (SK-MEL-28 melanoma): > 100 µM | TGI (SK-MEL-28 melanoma): > 100 µM | GI50 (SK-MEL-5 melanoma): 28.2 µM | TGI (SK-MEL-5 melanoma): > 100 µM | GI50 (SK-OV-3 ovarian): > 64.7 µM | TGI (SK-OV-3 ovarian): > 100 µM | GI50 (SN12C renal): > 100 µM | TGI (SN12C renal): > 100 µM | GI50 (SNB-19 CNS): > 76.4 µM | TGI (SNB-19 CNS): > 100 µM | GI50 (SNB-75 CNS): 34.8 µM | TGI (SNB-75 CNS): > 86.4 µM | GI50 (SW-620 colon): > 100 µM | TGI (SW-620 colon): > 100 µM | GI50 (T-47D breast): > 100 µM | TGI (T-47D breast): > 100 µM | GI50 (TK-10 renal): > 56.2 µM | TGI (TK-10 renal): > 100 µM | GI50 (U251 CNS): 1.67 µM | TGI (U251 CNS): > 87.6 µM | GI50 (UACC-257 melanoma): > 100 µM | TGI (UACC-257 melanoma): > 100 µM | GI50 (UACC-62 melanoma): 33.4 µM | TGI (UACC-62 melanoma): > 61.2 µM | GI50 (UO-31 renal): > 100 µM | TGI (UO-31 renal): > 100 µM

From PubChem BioAssay (NCI)
